Test results from publication PMC10999112 (Angewandte Chemie (International ed. in English), 2023).

Target: recombinant WT-NSUN2 (Homo sapiens, UniProt Q08J23)
Experiment: Gel-ABPP in lysate of WT-NSUN2-expressing HEK293T cells
Format: binding
Conditions: recombinant WT-NSUN2 in HEK293T cell lysates

Chain of recombinant WT-NSUN2 (Q08J23 whole entry): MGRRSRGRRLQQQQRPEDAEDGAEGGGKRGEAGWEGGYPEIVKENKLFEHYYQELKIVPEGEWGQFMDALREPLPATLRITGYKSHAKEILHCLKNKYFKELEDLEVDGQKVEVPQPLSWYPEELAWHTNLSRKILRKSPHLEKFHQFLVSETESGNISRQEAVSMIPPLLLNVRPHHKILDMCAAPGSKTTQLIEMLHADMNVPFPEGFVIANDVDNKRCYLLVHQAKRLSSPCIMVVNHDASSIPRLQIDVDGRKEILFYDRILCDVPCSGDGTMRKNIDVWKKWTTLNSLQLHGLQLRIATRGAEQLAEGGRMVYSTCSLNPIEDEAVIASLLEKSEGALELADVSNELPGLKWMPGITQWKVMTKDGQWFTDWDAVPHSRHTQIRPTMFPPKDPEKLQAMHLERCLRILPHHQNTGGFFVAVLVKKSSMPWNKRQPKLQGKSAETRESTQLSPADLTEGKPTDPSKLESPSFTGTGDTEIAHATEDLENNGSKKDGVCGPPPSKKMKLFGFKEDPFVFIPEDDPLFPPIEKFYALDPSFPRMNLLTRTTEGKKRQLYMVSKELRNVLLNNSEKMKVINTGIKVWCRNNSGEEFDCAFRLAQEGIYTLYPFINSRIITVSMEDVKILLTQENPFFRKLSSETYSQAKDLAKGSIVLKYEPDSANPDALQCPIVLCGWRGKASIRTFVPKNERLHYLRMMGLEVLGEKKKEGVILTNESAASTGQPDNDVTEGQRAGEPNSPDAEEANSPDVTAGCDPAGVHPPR

Nc1ncnc2c1ncn2[C@@H]1O[C@H](CSCC[C@H](N)C(=O)O)[C@@H](O)[C@H]1O [SAH, S-adenosylhomocysteine]
blockade of MY-11B reactivity with NSUN2: blocked in a concentration-dependent manner
